Experimental data taken from paper PMC9151520 (Archives of Toxicology, 2022).
Several values for one entry are separate records, joined by “and”; a condition that tells them apart may be missing. Equal values may be shown once. Where a name gives a salt, the structure may show the parent alone. Read-outs that look alike come from different tables or passages of the source.

Key:
[1] = test system: p53 signaling (p53RE-bla HCT-116 cells); assay: cells; assay type: cell-based
[2] = test system: p53 signaling (p53RE-bla HCT-116 cells)
[3] = test system: p53 signaling (p53RE-bla HCT-116 cells); conditions: for EC50: read-out: p53 activation EC50, HLM
[4] = test system: p53RE-bla HCT-116 cells
[5] = Homo sapiens, HCT-116, read-out: p53 activation EC50, primary screening
[6] = Homo sapiens, HCT-116, read-out: p53 activation efficacy, cherry pick confirmation
[7] = Homo sapiens, HCT-116, read-out: p53 activation efficacy, primary screening
[8] = read-out: p53 activation EC50, cherry pick confirmation
[9] = read-out: p53 activation EC50, primary screening
[10] = read-out: EC50, p53 activation, primary screening
[11] = Homo sapiens, HCT-116, read-out: EC50, p53 activation, cherry pick confirmation
[12] = Homo sapiens, HCT-116, read-out: EC50, p53 activation, primary screening
[13] = Homo sapiens, HCT-116, read-out: Efficacy, p53 activation, cherry pick confirmation
[14] = Homo sapiens, HCT-116, read-out: Efficacy, p53 activation, primary screening

Row | Molecule | p53 activation EC50, cherry pick confirmation [2] | p53 activation EC50, primary screening [2] | p53 activation efficacy, cherry pick confirmation [2] | p53 activation efficacy, primary screening [2] | p53 activation EC50, cherry pick confirmation [3] | p53 activation EC50, primary screening [3] | p53 activation efficacy, cherry pick confirmation [3] | p53 activation efficacy, primary screening [3] | Viability EC50, cherry pick confirmation [4] | Viability EC50, primary screening [4] | EC50, p53 activation, cherry pick confirmation [2] | EC50, p53 activation, primary screening [2] | Efficacy, p53 activation, cherry pick confirmation [2] | Efficacy, p53 activation, primary screening [2] | EC50, p53 activation, cherry pick confirmation [3] | EC50, p53 activation, primary screening [3] | Efficacy, p53 activation, cherry pick confirmation [3] | Efficacy, p53 activation, primary screening [3] | also measured
1 | CC(CN1CC(=O)NC(=O)C1)N1CC(=O)NC(=O)C1 (stereo not drawn) [Razoxane] | inactive | inactive | inactive | inactive | inactive | inactive | inactive | inactive | inactive | inactive |  |  |  |  |  |  |  |  | EC50 ([1]; Homo sapiens, HCT-116, read-out: p53 activation EC50, cherry pick confirmation): 20.9 µM; EC50 [1, 5]: 11.5 µM; Emax [1, 6]: 31.9%; Emax [1, 7]: 60.2%; Viability efficacy, cherry pick confirmation [4]: inactive; Viability efficacy, primary screening [4]: inactive
2 | Tricyclodecanedimethanol diacrylate | inactive | inactive | inactive | inactive | inactive | inactive | inactive | inactive | inactive | inactive |  |  |  |  |  |  |  |  | p53 activation efficacy, cherry pick confirmation [1]: 41.6463; p53 activation efficacy, primary screening [1]: 37.7867; EC50 [1, 8]: 30.6 µM; EC50 [1, 9]: 44.5 µM; EC50 ([4]; read-out: Viability EC50, cherry pick confirmation): 49.4 µM; EC50 ([4]; read-out: Viability EC50, primary screening): 49.5 µM
3 | Oc1c(Cl)cc(Cl)cc1Sc1cc(Cl)cc(Cl)c1O [Sodium bithionolate] |  |  |  |  |  |  |  |  |  |  | inactive | inactive | inactive | inactive | inactive | inactive | inactive | inactive | EC50, p53 activation, cherry pick confirmation [1]: inactive; Efficacy, p53 activation, cherry pick confirmation [1]: inactive; Efficacy, p53 activation, primary screening [1]: 34.4493; EC50 [1, 10]: 17.3 µM; EC50, viability, cherry pick confirmation [4]: inactive; EC50, viability, primary screening [4]: inactive; EC50 ([4]; read-out: EC50, viability, cherry pick confirmation): 46.5 µM and 39.1 µM; EC50 ([4]; read-out: EC50, viability, primary screening): 43.5 µM and 45.5 µM
4 | Cl.Nc1ccn([C@@H]2O[C@H](CO)[C@@H](O)C2(F)F)c(=O)n1 | inactive | inactive | inactive | inactive | inactive | inactive | inactive | inactive | inactive | inactive |  |  |  |  |  |  |  |  | p53 activation efficacy, cherry pick confirmation [1]: 111.507; p53 activation efficacy, primary screening [1]: 94.321; EC50 [1, 8]: 0.205 µM; EC50 [1, 9]: 0.174 µM; Viability efficacy, cherry pick confirmation [4]: inactive; Viability efficacy, primary screening [4]: inactive
5 | Acriflavine hydrochloride | inactive | inactive | inactive | inactive | inactive | inactive | inactive | inactive | inactive | inactive |  |  |  |  |  |  |  |  | p53 activation efficacy, cherry pick confirmation [1]: 281.114; p53 activation efficacy, primary screening [1]: 193.527; EC50 [1, 8]: 2.46 µM; EC50 [1, 9]: 5.41 µM; Viability efficacy, cherry pick confirmation [4]: inactive; Viability efficacy, primary screening [4]: inactive
6 | O=C(O)Cc1cc(I)c(Oc2ccc(O)c(I)c2)c(I)c1 [Tiratricol] |  |  |  |  |  |  |  |  |  |  |  |  |  |  |  |  |  |  | p53 activation efficacy [1]: 79.5057 and 58.391; EC50 ([1]; Homo sapiens, HCT-116, read-out: p53 activation EC50): 16.5 µM; EC50 ([1]; read-out: p53 activation EC50): 10.7 µM; p53 activation EC50 [2]: inactive; p53 activation efficacy [2]: inactive; p53 activation EC50 [3]: inactive; p53 activation efficacy [3]: inactive; Viability EC50 [4]: inactive; Viability efficacy [4]: inactive
7 | Cc1cc(C2CCCCC2)n(O)c(=O)c1 [Ciclopirox olamine] |  |  |  |  |  |  |  |  |  |  | inactive | inactive | inactive | inactive | inactive | inactive | inactive | inactive | EC50 [1, 11]: 26.5 µM; EC50 [1, 12]: 16.3 µM; Emax [1, 13]: 57.2%; Emax [1, 14]: 26%; EC50, viability, cherry pick confirmation [4]: inactive; EC50, viability, primary screening [4]: inactive; Efficacy, viability, cherry pick confirmation [4]: inactive; Efficacy, viability, primary screening [4]: inactive
8 | CNC(=O)c1ccccc1Sc1ccc2c(/C=C/c3ccccn3)n[nH]c2c1 [Axitinib] | inactive | inactive | inactive | inactive | inactive | inactive | inactive | inactive | inactive | inactive |  |  |  |  |  |  |  |  | EC50 [1, 5]: 1.41 µM; Emax [1, 6]: 56%; Emax [1, 7]: 83.4%; Viability efficacy, cherry pick confirmation [4]: inactive; Viability efficacy, primary screening [4]: inactive
9 | C=CCOC(Cn1ccnc1)c1ccc(Cl)cc1Cl (stereo not drawn) [Imazalil] |  |  |  |  |  |  |  |  |  |  | inactive | inactive | inactive | inactive | inactive | inactive | inactive | inactive | EC50, p53 activation, cherry pick confirmation [1]: inactive; Efficacy, p53 activation, cherry pick confirmation [1]: inactive; EC50 [1, 12]: 49.6 µM; Emax [1, 14]: 41.7%; EC50, viability, cherry pick confirmation [4]: inactive; EC50, viability, primary screening [4]: inactive; Efficacy, viability, cherry pick confirmation [4]: inactive; Efficacy, viability, primary screening [4]: inactive
10 | Oc1c(Cl)cc(Cl)cc1Sc1cc(Cl)cc(Cl)c1O [Bithionol] |  |  |  |  |  |  |  |  |  |  | inactive | inactive | inactive | inactive | inactive | inactive | inactive | inactive | Efficacy, p53 activation, primary screening [1]: 93.9867; EC50 [1, 11]: 20.3 µM; Emax [1, 13]: 74%; EC50 [1, 10]: 39.6 µM
11 | O=C(c1ccc(O)c(O)c1)c1ccc(O)cc1O [2,3',4,4'-Tetrahydroxybenzophenone] |  |  |  |  |  |  |  |  |  |  |  |  |  |  |  |  |  |  | p53 activation efficacy, cherry pick confirmation [1]: inactive
12 | Phenylmercuric acetate |  |  |  |  |  |  |  |  |  |  |  |  |  |  |  |  |  |  | p53 activation Efficacy, No MS [1]: 66.4107% and 63.4503%; p53 activation EC50, RLM [2]: inactive; p53 activation Efficacy, RLM [2]: inactive; p53 activation EC50, HLM [3]: inactive; EC50 [3]: 12.5 µM
13 | Irinotecan hydrochloride |  |  |  |  |  |  |  |  |  |  |  |  |  |  |  |  |  |  | Efficacy, p53 activation, cherry pick confirmation [1]: 86.836; Efficacy, p53 activation, primary screening [1]: 70.7017; EC50 [1, 10]: 4.18 µM
14 | CSc1ccc2c(c1)N(CCC1CCCCN1C)c1ccccc1S2 (stereo not drawn) [Thioridazine hydrochloride] |  |  |  |  |  |  |  |  |  |  | inactive | inactive | inactive | inactive | inactive | inactive | inactive | inactive | Emax [1, 13]: 51.8%; Emax [1, 14]: 64.5%
15 | O=C1CCCc2c1cc1ccc3cccc4ccc2c1c34 [9,10-Dihydrobenzo[a]pyren-7(8H)-one] |  |  |  |  |  |  |  |  |  |  |  |  |  |  |  |  |  |  | p53 activation EC50, RLM [2]: inactive; p53 activation Efficacy, RLM [2]: inactive; p53 activation EC50, HLM [3]: inactive; EC50 [3]: 9.29 µM; Viability EC50, HLM [4]: inactive; Viability EC50, No MS [4]: inactive; Viability EC50, RLM [4]: inactive; Viability Efficacy, HLM [4]: inactive; Viability Efficacy, No MS [4]: inactive; Viability Efficacy, RLM [4]: inactive
16 | CC(C)c1ccc2cc(C(C)C)ccc2c1 [2,6-Diisopropylnaphthalene] |  |  |  |  |  |  |  |  |  |  |  |  | inactive | inactive |  |  |  |  | Efficacy, p53 activation, cherry pick confirmation [1]: inactive
